According to ChEMBL document CHEMBL5729575, “Alkynyl-substituted heterocyclic compound, preparation method therefor and medical use thereof” (2023):
pIC50: −log10 of the molar value.

Tests used:
[1] = biological target: Fibroblast growth factor receptor 3 (Homo sapiens, UniProt P22607); experiment: FGFR3 Activity Inhibition Test: The reaction buffer contains the following components: 5-fold diluted enzymatic buffer/kinase 5x(Cisbio, Cat No. 62EZBFDD)(its main component is 50nM HEPES, pH 7.0), 5mM MgCl2 and 1 mM DTT, a […] which was purchased from Yiqiao Shenzhou Biotech Co. Ltd., a 0.3 ng/uL kinase solution diluted by the …
[2] = biological target: Fibroblast growth factor receptor 2 (Homo sapiens, UniProt P21802); experiment: FGFR2 Activity Inhibition Test: The reaction buffer contains the following components: 5-fold diluted enzymatic buffer/kinase 5x(Cisbio, Cat No. 62EZBFDD)(its main component is 50nM HEPES, pH 7.0), 5mM MgCl2 and 1 mM DTT, a human recombinant FGFR2 catalytic domain protein (amino acid 400-821) which was purchased from Yiqiao Shenzhou Biotech Co. Ltd., a 0.45ng/uL kinase solution diluted by the …
Chain of Fibroblast growth factor receptor 2 (P21802 whole entry, the tested form may be a part): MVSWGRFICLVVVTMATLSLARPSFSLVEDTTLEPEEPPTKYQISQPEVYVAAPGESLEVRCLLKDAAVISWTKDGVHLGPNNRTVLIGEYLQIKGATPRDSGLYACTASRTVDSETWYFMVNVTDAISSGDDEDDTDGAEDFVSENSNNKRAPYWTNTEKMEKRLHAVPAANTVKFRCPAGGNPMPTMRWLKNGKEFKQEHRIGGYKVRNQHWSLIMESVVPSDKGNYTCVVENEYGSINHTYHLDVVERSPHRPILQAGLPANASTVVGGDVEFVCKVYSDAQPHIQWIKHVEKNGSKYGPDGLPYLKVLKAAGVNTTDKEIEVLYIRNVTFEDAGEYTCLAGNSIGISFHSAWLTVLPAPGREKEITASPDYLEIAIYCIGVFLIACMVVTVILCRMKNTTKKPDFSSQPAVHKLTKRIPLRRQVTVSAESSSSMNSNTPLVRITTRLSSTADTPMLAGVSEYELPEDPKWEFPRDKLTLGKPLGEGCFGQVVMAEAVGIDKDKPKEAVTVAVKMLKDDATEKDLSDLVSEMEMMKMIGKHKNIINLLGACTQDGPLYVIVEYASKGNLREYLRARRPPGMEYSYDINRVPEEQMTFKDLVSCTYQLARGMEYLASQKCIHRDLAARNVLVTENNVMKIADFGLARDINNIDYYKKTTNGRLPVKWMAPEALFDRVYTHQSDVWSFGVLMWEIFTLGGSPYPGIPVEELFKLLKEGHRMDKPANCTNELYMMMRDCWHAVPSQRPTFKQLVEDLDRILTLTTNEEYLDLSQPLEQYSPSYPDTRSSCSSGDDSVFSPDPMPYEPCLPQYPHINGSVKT

Chain of Fibroblast growth factor receptor 3 (P22607 whole entry, the tested form may be a part): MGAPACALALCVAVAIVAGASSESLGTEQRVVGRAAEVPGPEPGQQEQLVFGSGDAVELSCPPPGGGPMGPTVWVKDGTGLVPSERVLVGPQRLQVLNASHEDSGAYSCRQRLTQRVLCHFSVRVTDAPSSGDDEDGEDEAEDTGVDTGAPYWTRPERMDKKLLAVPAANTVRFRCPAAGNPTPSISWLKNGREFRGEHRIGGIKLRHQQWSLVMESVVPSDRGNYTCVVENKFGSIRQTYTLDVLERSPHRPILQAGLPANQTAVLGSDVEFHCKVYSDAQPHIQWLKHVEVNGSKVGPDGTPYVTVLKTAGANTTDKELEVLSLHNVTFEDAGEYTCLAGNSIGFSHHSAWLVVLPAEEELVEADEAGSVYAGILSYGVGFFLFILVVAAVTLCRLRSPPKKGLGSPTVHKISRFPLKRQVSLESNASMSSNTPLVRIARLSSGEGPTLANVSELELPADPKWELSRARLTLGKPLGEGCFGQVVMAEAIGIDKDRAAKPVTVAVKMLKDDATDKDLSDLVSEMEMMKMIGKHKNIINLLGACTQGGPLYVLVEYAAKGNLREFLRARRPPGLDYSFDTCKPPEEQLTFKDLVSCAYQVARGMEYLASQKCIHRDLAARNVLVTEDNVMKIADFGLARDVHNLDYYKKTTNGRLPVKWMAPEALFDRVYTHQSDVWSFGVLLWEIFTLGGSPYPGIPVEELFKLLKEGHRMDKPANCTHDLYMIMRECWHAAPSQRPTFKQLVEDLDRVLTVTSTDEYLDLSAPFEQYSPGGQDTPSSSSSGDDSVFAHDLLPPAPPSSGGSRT

CC#CC(=O)N1CC[C@H](n2nc(C#Cc3cc(OC)cc(OC)c3)c(C(N)=O)c2N)C1
pIC50 [1]: > 8.00
pIC50 [2]: > 8.00
